For orientation: IC50 means the concentration that gives 50% inhibition.

In brackets after ≈: the same amount, converted by molar mass. Read-outs that look alike come from different tables or passages of the source.

Consider three molecules from publication PMC5435703 (Scientific Reports, 2017).

The subject of one series is S. aureus. Further details: method as in PMID 24389824. The settings on record: initial studies; cited from earlier work.
Series [1] relates to MRSA BAA-1707. Description: MIC broth microdilution assay. Type of series: cell-based, Staphylococcus aureus. (In broth dilution the organism is exposed to a series of concentrations in liquid medium.)
The next series relates to MRSA, MRSE and VRE. Description: MIC assays, summary over strains. Type of series: cell-based. The conditions noted are these: read-out: MIC against all strains tested against.
Another series relates to VRE 700221. Description: MIC broth microdilution assay. It is filed as cell-based, Enterococcus faecium. The settings on record: Enterococcus, VRE, Table 1; read-out: MIC VRE 700221.
Another series has as its system MRSE 35984. The experiment in a line: MIC broth microdilution assay. It is filed as cell-based, Staphylococcus epidermidis. The settings on record: Staphylococcus epidermidis, MRSE.
The test system of a further series is MRSA-2. The experiment in a line: MIC broth microdilution assay. The conditions noted are these: Staphylococcus aureus, MRSA; Table 1; read-out: MIC MRSA-2. Type of series: cell-based, Staphylococcus aureus.
A further series concerns MRSA-1. Description: MIC broth microdilution assay. Type of series: cell-based, Staphylococcus aureus. The conditions noted are these: Staphylococcus aureus, MRSA.
Series [2] concerns MRSA BAA-1707. The experiment in a line: MIC assay with metal(II) cation co-treatment. It is filed as cell-based, Staphylococcus aureus.
Series [3] is described as follows: LDH release assay for HeLa cytotoxicity. Type of series: cell-based. The settings on record: human, HeLa cells; LDH release, 24 hours; tested at 25, 50 and 100 µM; read-out: HeLa Cytotox. IC50. A general note: Release of lactate dehydrogenase indicates damage to the cell membrane.
Series [4] is described as follows: Hemolysis assay with red blood cells. The settings on record: human, pH 7.2.
A further series deals with S. epidermidis. The experiment in a line: MIC assays, S. epidermidis strains. Type of series: cell-based. The settings on record: Staphylococcus epidermidis; range over strains.
The next series is described as follows: UV-Vis metal(II) binding. It is filed as physicochemical. The settings on record: UV-Vis kinetics, compared to HP 1. On the procedure:
The rates of halogenated phenazine-copper(II) complex formation were independently evaluated via UV-Vis spectrometry following addition of 0.5 equivalents copper(II) sulfate to stirring solutions of HP (10 mM, 4 mL) in dimethyl sulfoxide. Spectral scanning was performed from 200 to 800 nm in 2 nm increments. The disappearance of HPs 1, 17 and 22 was observed over the indicated time points. The halogenated phenazine-copper(II) complex formation yielded a loss in absorbance due to precipitation.

A further series has as its system MRSA BAA-44. Description: MIC broth microdilution assay. The conditions noted are these: Staphylococcus aureus. It is filed as cell-based.
In another series the test system is MtB H37Ra. Description: MIC assay for Mycobacterium tuberculosis. It is filed as cell-based. The conditions noted are these: 168 h, seven days.
The next series relates to S. epi 12228. The experiment in a line: MIC broth microdilution assay. Type of series: cell-based, Staphylococcus epidermidis. The conditions noted are these: Staphylococcus epidermidis, 12228; Table 1; read-out: MIC S. epi 12228.
Series [5] relates to MRSA BAA-1707. The experiment in a line: Calgary Biofilm Device (CBD) MBC/MBEC assay. It is filed as cell-based, Staphylococcus aureus. The conditions noted are these: for MBC: Staphylococcus aureus.
For another series, the system named is four MRSA isolates. Description: MIC assays, panel of four MRSA isolates. Type of series: cell-based. The settings on record: Staphylococcus aureus, range over isolates, read-out: MIC against a panel of four MRSA isolates.
The subject of the next series is MRSA-1707 biofilms. Description: Live/Dead staining (fluorescence microscopy) of biofilms. The settings on record: 0.1, 1 and 5 µM, 24 hours.

Experimental for MRSA-1707 biofilms: A mid-log culture of MRSA BAA-1707 was diluted 1:1,000-fold and 500 µL was transferred to each compartment of a 4 compartment CELLview dish (Greiner Bio-One 627871). The dish was then incubated for 24 hours at 37 °C. After this time, the cultures were removed and the plate was washed with 0.9% saline. The dish was then treated with the compounds in fresh media at various concentrations. DMSO was used as our negative control in this assay. The dish was incubated with the compound for 24 hours at 37 °C. After this time, the cultures were removed and the dish was washed with 0.9% saline for 2 minutes. Saline was then removed and 500 µL of the stain (Live/Dead BacLight Viability Kit, Invitrogen) were added for 15 minutes and left in the dark. After this time, the stain was removed and the dish was washed twice with 0.9% saline. Then the dish was fixed with 500 µL 4% paraformaldehyde in PBS for 30 minutes. Images of remaining MRSA biofilms were then taken with a fluorescence microscope. All data were analyzed using ImageJ software from three independent experiments.
E.) Live / Dead staining (Fluorescence Microscopy) of MRSA BAA-1707 Biofilms: […]
the cultures were removed and the dish was washed with 0.9% saline for 2 minutes. […] Images of remaining MRSA biofilms were then taken with a fluorescence microscope. All data were analyzed using Image J software from three

For the molecule `Oc1c(Br)ccc2nc3ccccc3nc12` [2-bromo-1-hydroxyphenazine, reference compound], in the series with S. aureus, the “MIC S. aureus” value is reported as 6.25 µM (≈ 1.72 µg/mL).
As to `Oc1c(Br)cc(Br)c2nc3c(O)c(Br)cc(Br)c3nc12` [HP 15], the MIC in the series on MRSA BAA-1707 [1] (Staphylococcus aureus, Table 1, three independent experiments, read-out: MIC MRSA BAA-1707) was more than 50 µM; in the series with MRSA BAA-1707 [1] (Table 1, three independent experiments, read-out: MIC MRSA BAA-1707), more than 50 µM; with MRSA, MRSE and VRE, more than 50 µM; with VRE 700221 it was more than 50 µM; in the series on MRSE 35984 (Table 1, read-out: MIC MRSE 35984), more than 50 µM; with MRSA-2, more than 50 µM. Further, the MIC in the series on MRSA-1 (Table 1, read-out: MIC MRSA-1) is more than 50 µM; in the series with MRSA-1 (single plate shown as picture, read-out: MIC (µM), MIC Assay Against MRSA-1), more than 50 µM.
Turning to `Cc1cccc2nc3c(O)c(Br)cc(Br)c3nc12` [HP 17, 6-methyl-2,4-dibromo-1-hydroxyphenazine], the MIC in the series with MRSA BAA-1707 [2] (Staphylococcus aureus, Cu(II) co-treatment plate, lanes without metal, read-out: MIC) worked out at 0.2 µM; in the series with MRSA BAA-1707 [2] (Staphylococcus aureus, Fe(II) co-treatment plate, lanes without metal, read-out: MIC), 0.39 µM; in the series with MRSA BAA-1707 [2] (Staphylococcus aureus, Mg(II) co-treatment plate, lanes without metal, read-out: MIC), 0.2 µM; with MRSA BAA-1707 [2] (Staphylococcus aureus, Table 2, MRSA BAA-1707, no metal(II) cation added, read-out: MIC), 0.3 µM; in the series on MRSA BAA-1707 [2] (Staphylococcus aureus, Zn(II) extended plate assay, lanes without metal, read-out: MIC) it was 0.2 µM; in the series with MRSA BAA-1707 [2] (Staphylococcus aureus, copper(II) at 200 µM co-treatment, read-out: MIC w/Cu2+) it was 75 µM. The MIC with MRSA BAA-1707 [2] (Staphylococcus aureus, extended plate assay, 200 µM Zn(II), read-out: MIC (µM) + Zn(II)) came to 0.05 µM; with MRSA BAA-1707 [2] (Staphylococcus aureus, iron(II) at 200 µM co-treatment, read-out: MIC w/Fe2+) it was 12.5 µM; with MRSA BAA-1707 [2] (Staphylococcus aureus, magnesium(II) at 200 µM co-treatment, read-out: MIC w/Mg2+), 0.3 µM; in the series on MRSA BAA-1707 [2] (Staphylococcus aureus, single plate, 200 µM Fe(II), read-out: MIC (µM) + Fe(II)) it was 12.5 µM; with MRSA BAA-1707 [2] (Staphylococcus aureus, single plate, 200 µM Mg(II), read-out: MIC (µM) + Mg(II)), 0.2 µM; in the series with MRSA BAA-1707 [2] (Staphylococcus aureus, zinc(II) at 200 µM co-treatment, read-out: MIC w/Zn2+), 0.05 µM. Also, the MIC is 50 µM in the series with MRSA BAA-1707 [2] (single plate, 200 µM Cu(II), read-out: MIC (µM) + Cu(II)); 0.3 µM (≈ 0.11 µg/mL) with MRSA BAA-1707 [1] (Staphylococcus aureus, Table 3, read-out: MRSA BAA-1707 MIC); 0.2 µM (≈ 0.0736 µg/mL) with MRSA BAA-1707 [1] (Staphylococcus aureus, single plate shown as picture, read-out: MIC (µM), MIC Assay against MRSA BAA-1707); 0.3 to 0.39 µM (≈ 0.11 to 0.144 µg/mL) in the series with S. epidermidis; 0.3 µM (≈ 0.11 µg/mL) in the series on MRSE 35984 (Table 3, read-out: MRSE 35984 MIC); 0.39 µM (≈ 0.144 µg/mL) in the series on MRSA BAA-44 (single plate shown as picture, read-out: MIC (µM), MIC Assay Against MRSA BAA-44). Further, the MIC is 0.39 µM (≈ 0.144 µg/mL) with MRSA BAA-44 (Table 1, read-out: MIC MRSA BAA-44); 25 µM (≈ 9.2 µg/mL) against MtB H37Ra; 0.39 µM (≈ 0.144 µg/mL) with S. epi 12228; 0.3 µM (≈ 0.11 µg/mL) with MRSA-2; 0.05 to 0.59 µM (≈ 0.0184 to 0.217 µg/mL) in the series with four MRSA isolates; not above 0.1 µM with MRSA-1 (Table 1, read-out: MIC MRSA-1). Besides, in [3], the IC50 at 24 h was more than 100 µM. The hemolysis at 1 h, 200 µM in [4] came out at 6.7%. Further, the “rate of copper(II) chelation” value in “UV-Vis metal(II) binding” is on record as “faster rate than HP 1”. Also, the “MRSA BAA-1707 MBEC” value in the series on MRSA BAA-1707 [5] (CBD, biofilm eradication, 24 hours treatment) is 6.25/6.25 µM. In the series with MRSA BAA-1707 [5] (Figure 7A, single CBD plate), the “MRSA-1707 Biofilm Eradication MBEC” value is 6.25 µM. In addition, the MBC was found to be 6.25 µM (≈ 2.3 µg/mL) in the series on MRSA BAA-1707 [5] (24 h, CBD, planktonic killing, 24 hours treatment, read-out: MRSA BAA-1707 MBC); 6.25 µM (≈ 2.3 µg/mL) in the series with MRSA BAA-1707 [5] (24 h, supplement page 27, first CBD plate, read-out: MRSA Planktonic Killing MBC); 6.25 µM (≈ 2.3 µg/mL) in the series on MRSA BAA-1707 [5] (Figure 7A, single CBD plate, read-out: MRSA-1707 Planktonic Eradication MBC). In addition, in the series on MRSA-1707 biofilms, the “Live/Dead staining response of established biofilms” value is “potent biofilm eradication and clearance response”.
